How the values were obtained:
[1] = system: morning glory (Pharbitis nil var. Violet) seedlings; assay: Low light cultivation experiment: number of days until lodging of morning glory young plants; format: in vivo; details: for Average value (days) of the numbers of days until lodging: 250 mL per pot once every four days, 200 lux, 23° C.; for effectiveness to low light cultivation (days until lodging versus control test solution): verdict in words
Procedure: As a plant, morning glory (Pharbitis nil var. Violet) seedlings (day 7 after germination) were used. Experiments were conducted in an incubator (low temperature of 23° C.) in daily cycles where a light period (200 lux) is 14 hours and a dark period is 10 hours in a day. Morning glory seeds (purchased from Marutane Co., Ltd., Kyoto) were sown in black plastic pots (commercially available No. 105 size: diameter 105 cm, height 90 cm). Vermiculite was used as culture medium (the wet weight of vermiculite in a pot was 350 g).
250 mL of a test solution was given to each pot once every four days. Test data was taken from 10 morning glory seedlings (young plants) grown per pot. After start of the test, the number of seedlings that lodged was counted every day. A lodging criterion is that the hypocotyl (a rachis under a cotyledon) of a young plant lodges and the cotyledon contacts culture medium, or the whole cotyledon died. Lodged young plants were removed each time. Note that the effect was evaluated using the average value of the numbers of days until lodging. The average value was calculated as follows. For example, when three plants lodged on day 9, four plants lodged on day 10, and three plants lodged on day 11, then the average value is 10.0 (=(9×3+10×4+11×3)/10).
Eight organic acids (aminolevulinic acid, citric acid, malic acid, succinic acid, tartaric acid, acetic acid, oxalic acid, and lactic acid) were prepared. Each organic acid was dissolved in a 500-fold dilution of a liquid fertilizer (VIGOR LIFE V) (a solution in which VIGOR LIFE V was diluted 500-fold with distilled water). Thereafter, the solution was adjusted to pH 5.0 with potassium hydroxide. Note that the organic acid concentration of each test solution was 5 mM.
A 500-fold dilution of VIGOR LIFE V was used as a control test solution.
The eight test solutions and the control test solution were used to conduct the low light cultivation experiment. Note that the upper row of Table 1 indicates the organic acids contained in the test solutions (the control test solution contained no organic acid). Also, the lower row of Table 1 indicates the average values (days) of the numbers of days until lodging of the morning glory young plants.
Six sugars (sucrose, glucose, fructose, trehalose, palatinose, and xylose) were prepared. Each sugar was dissolved in a 500-fold dilution of a liquid fertilizer (VIGOR LIFE V) (a solution in which VIGOR LIFE V was diluted 500-fold with distilled water). Note that the sugar concentration of each test solution was 3%.
Also, a 500-fold dilution of VIGOR LIFE V was used as a control test solution. […]
Note that the upper row of Table 2 indicates the sugars contained in the test solutions (the control test solution contained no sugar). Also, the lower row of Table 2 indicates the average values (days) of the numbers of days until lodging of the morning glory young plants.

[2] = system: houseplant weeping fig (Ficus benzyamina); assay: Low light cultivation of weeping fig: leaf survival ratio; format: in vivo; details: after four weeks, verdict in words
Procedure: The inorganic solution was used as a control reagent. (Reagent 1: the inorganic solution in which aminolevulinic acid is dissolved, Reagent 2: the inorganic solution in which citric acid is dissolved, and Reagent 3: the inorganic solution in which citric acid and sucrose are dissolved).
Note that, in respective reagents, the citric acid concentration was 5 mM, the sucrose concentration was 3%, and the aminolevulinic acid concentration was 100 ppm. The reagents containing citric acid (Reagent 2 and Reagent 3) were adjusted to pH 5.0 with potassium hydroxide.
Low light cultivation was conducted using the reagents and a houseplant weeping fig, with two methods below.
Regular cultivation: four commercially available weeping fig plants in No. 4-sized pots were prepared. The four reagents (Reagents 1 to 3 and the control reagent) were given to the respective plants in an amount of 50 mL once (Monday) every week. Watering was performed in an amount of 50 mL twice (Wednesday and Friday) every week. […]
The effect of each reagent was evaluated by counting the number of leaves for each pot and calculating the survival ratio (%) of leaves every week. Note that the leaf survival ratio (%) was calculated as a “survival ratio (%)=the number of counted weeping fig leaves/the number of weeping fig leaves before low light cultivation (initial value)×100”.

[3] = organic acid 5 mM in 500-fold dilution of VIGOR LIFE V, pH 5.0
[4] = sugar 3% in 500-fold dilution of VIGOR LIFE V

| Compound | Average value (days) of the numbers of days until lodging [1, 3] | Average value (days) of the numbers of days until lodging [1, 4] | other results |
| --- | --- | --- | --- |
| O=C(O)C(=O)O [Oxalic acid, oxalic acid] | 3.7 days | – | – |
| NCC(=O)CCC(=O)O [Aminolevulinic acid, aminolevulinic acid, reference compound] | 2.5 days | – | – |
| O=C(CO)[C@@H](O)[C@H](O)[C@H](O)CO [Fructose, fructose] | – | 22.1 days | effectiveness to low light cultivation (days until lodging versus control test solution) ([1]; sugar 3%): particularly effective |
| CC(=O)O [Acetic acid, acetic acid] | 3.9 days | – | – |
| O=C(O)CC(O)(CC(=O)O)C(=O)O [Citric acid, citric acid] | 12.9 days | – | effectiveness to low light cultivation (days until lodging versus control test solution) ([1]; organic acid 5 mM, pH 5.0): effective; effectiveness to low light cultivation (leaf survival ratio versus control reagent) [2]: effective |
| OC[C@H]1O[C@H](OC[C@H]2OC(O)(CO)[C@@H](O)[C@@H]2O)[C@H](O)[C@@H](O)[C@@H]1O (some centres unmarked) [Palatinose, palatinose] | – | 9.6 days | – |
| O=C(O)C(O)C(O)C(=O)O (centres unmarked) [Tartaric acid, tartaric acid] | 4.9 days | – | – |
| OC[C@H]1O[C@H](O[C@H]2O[C@H](CO)[C@@H](O)[C@H](O)[C@H]2O)[C@H](O)[C@@H](O)[C@@H]1O [Trehalose, trehalose] | – | 21.9 days | effectiveness to low light cultivation (days until lodging versus control test solution) ([1]; sugar 3%): particularly effective |
| OC[C@H]1O[C@@](CO)(O[C@H]2O[C@H](CO)[C@@H](O)[C@H](O)[C@H]2O)[C@@H](O)[C@@H]1O [Sucrose, sucrose] | – | 25.9 days | effectiveness to low light cultivation (days until lodging versus control test solution) ([1]; sugar 3%): particularly effective |
| O=C(O)CCC(=O)O [Succinic acid, succinic acid] | 10.4 days | – | effectiveness to low light cultivation (days until lodging versus control test solution) ([1]; organic acid 5 mM, pH 5.0): effective |
| CC(O)C(=O)O (centres unmarked) [Lactic acid, lactic acid] | 6.1 days | – | – |
| O=C[C@H](O)[C@@H](O)[C@H](O)CO [Xylose, xylose] | – | 10.1 days | – |
| O=C(O)CC(O)C(=O)O (centres unmarked) [Malic acid, malic acid] | 11.1 days | – | effectiveness to low light cultivation (days until lodging versus control test solution) ([1]; organic acid 5 mM, pH 5.0): effective |

Source: US20080250710A1, “Low Light Cultivation Method and Plant Growth Promoting Agent” (priority 2005, published 2008)
